Data on 60 compounds can be found in US10301317B2, “Inhibitors of ERK and methods of use” (Kura Oncology, Inc., priority 2013, dated 2019).

Each structure is given as a SMILES string.

The test system of the experiment is phospho-p90 RSK (RSK1 Thr359/Ser363) in A375 (Braf V600E) cells. Put plainly: Phospho-p90 RSK ELISA using A375 (Braf V600E) cells. The experiment is classed as cell-based. The following applies: Homo sapiens, A-375, 2 hours compound treatment, read-out: Cellular Phospho-p90RSK IC50. The protocol:
In preparation for the assay, an ELISA plate with the pre-coated goat anti-mouse antibody (Thermo Scientific) was treated with a mouse anti-human RSK1 antibody (monoclonal, Invitrogen) at 1:800 dilution (150 ng/well) in PBS, and the plate was placed on a plate shaker at 4° C. overnight. […] After two […] of the compound treatment, the supernatant was removed from the cell plate, and cells were lysed in 100 μl per well of cell lysis buffer (Cell Signaling Technologies) containing phosphatase and protease inhibitors (Cell Signaling Technologies) on a plate shaker at 4° C. for 20 minutes. The ELISA plate was washed four times with ELISA wash buffer (Thermo Scientific) prior to addition of 100 μL cell lysate. The lysate was incubated on the ELISA plate with gentle shaking at room temperature for 2 hours. The contents of the wells were removed, and the ELISA plate was washed four times with wash buffer, and incubated with 100 μL per well of anti-phospho-RSK1 (Thr359/Ser363) rabbit monoclonal antibody (Millipore) at dilution of 1:1000 in StartingBlock buffer (Thermo Scientific) on a plate shaker at room temperature for 1 hour. The contents of the wells were removed, the ELISA plate was washed four times with wash buffer, and was incubated with 100 μL per well of goat anti-rabbit HRP (Thermo Scientific) at dilution of 1:3000 in StartingBlock buffer (Thermo Scientific) on a plate shaker at room temperature for 1 hour. The contents of the wells were removed, the ELISA plate was washed four times with wash buffer, and then incubated with 100 μL per well of TMB substrate solution (Thermo Scientific) on a plate shaker at room temperature for 20 minutes. Finally, 100 μL of TMB stop solution (Thermo Scientific) was added to each well and the absorbance is measured at 450 nm on a Tecan plate reader.
(In an ELISA, binding on a coated surface is turned into a signal by an enzyme label.)
For `Cc1cc(-c2n[nH]c3cc4c(cc23)CN([C@@H]2CN(CC(F)(F)F)C[C@H]2C2CC2)C(=O)N4)ccn1` (mixture of isomers) [Example 319], the IC50 (as a rule, the concentration at which inhibition is half-maximal) was 250 to 1000 nM.

With `Cc1cc(-c2n[nH]c3cc4c(cc23)CN([C@@H]2CN(CC(F)(F)F)C[C@H]2C(C)C)C(=O)N4)ccn1` (mixture of isomers) [Example 322], the IC50 was 250 to 1000 nM. Take `Cc1cc(-c2n[nH]c3cc4c(cc23)CN([C@@H]2CN(C)C[C@H]2C(C)C)C(=O)N4)ccn1` (mixture of isomers) [Example 327]: the IC50 is over 1000 nM. The same measure for `COc1ccc(-c2n[nH]c3cc4c(cc23)CN([C@@H]2CN(C)C[C@H]2c2ccccc2)C(=O)N4)cn1` (mixture of isomers) [Example 353]: at most 250 nM. Take `COc1cc(-c2n[nH]c3cc4c(cc23)CN([C@@H]2CN(C)C[C@H]2c2ccccc2)C(=O)N4)ccn1` (mixture of isomers) [Example 354]: the IC50 was at most 250 nM. `COc1ncc(-c2n[nH]c3cc4c(cc23)CN([C@@H]2CN(C)C[C@H]2c2ccccc2)C(=O)N4)cn1` (mixture of isomers) [Example 355]: the IC50 was 250 to 1000 nM. Turning to `Cc1cc(-c2n[nH]c3cc4c(cc23)CN([C@@H]2CN(CCC#N)C[C@H]2c2ccccc2)C(=O)N4)ccn1` (mixture of isomers) [Example 356], the IC50 was at most 250 nM. Turning to `Cc1cc(-c2n[nH]c3cc4c(cc23)CN([C@@H]2CN(C3CCOCC3)C[C@H]2c2ccccc2)C(=O)N4)ccn1` (mixture of isomers) [Example 359], the IC50 was 250 to 1000 nM. `Cc1cc(-c2n[nH]c3cc4c(cc23)CN([C@@H]2CN(CCC(F)(F)F)C[C@H]2c2ccccc2)C(=O)N4)ccn1` (mixture of isomers) [Example 387]: the IC50 was 250 to 1000 nM. On to `Cc1cc(-c2n[nH]c3cc4c(cc23)CN([C@@H]2CNC[C@H]2c2ccccc2)C(=O)N4)ccn1` (racemic) [Example 223], for which the IC50 lay in the range of 250 to 1000 nM. For `Cc1cc(-c2n[nH]c3cc4c(cc23)CN([C@@H]2CN(CC(F)(F)F)C[C@H]2c2ccc(F)cc2)C(=O)N4)ccn1` (racemic) [Example 300], the IC50 was at most 250 nM.

On to `Cc1cc(-c2n[nH]c3cc4c(cc23)CN([C@@H]2CN(CC(F)(F)F)C[C@H]2C)C(=O)N4)ccn1` (racemic) [Example 302], for which the IC50 is at most 250 nM.

As to `Cc1cc(-c2n[nH]c3cc4[nH]c(=O)c(Cc5ccccc5)cc4cc23)ccn1` [Example 6], the IC50 is at most 250 nM.

With `COc1cc(-c2n[nH]c3cc4c(cc23)CN(Cc2ccc(F)c(Cl)c2)C(=O)N4)ccn1` [Example 38], the IC50 was 250 to 1000 nM. As for `O=C1Nc2cc3[nH]nc(-c4ccc(F)cc4)c3cc2CN1Cc1ccc(F)c(Cl)c1` [Example 40], the IC50 was over 1000 nM. `O=C1Nc2cc3[nH]nc(C4CC4)c3cc2CN1Cc1ccc(F)c(Cl)c1` [Example 42]: the IC50 was over 1000 nM.

`Cc1cc(-c2n[nH]c3cc4c(cc23)CN(CCO)C(=O)N4)ccn1` [Example 43]: the IC50 was over 1000 nM.

Regarding `Cc1cc(-c2n[nH]c3cc4c(cc23)CN(C2CCOCC2)C(=O)N4)ccn1` [Example 44], the IC50 lay within 250 to 1000 nM. As for `COCCOCCN1Cc2cc3c(-c4ccnc(C)c4)n[nH]c3cc2NC1=O` [Example 45], the IC50 lay within 250 to 1000 nM.

Consider `Cc1cc(-c2n[nH]c3cc4c(cc23)CN(CCN(C)C)C(=O)N4)ccn1` [Example 46], for which the half-maximal inhibitory concentration (IC50) was over 1000 nM.

As to `O=C1Nc2cc3[nH]nc(-c4cn[nH]c4)c3cc2CN1Cc1ccc(F)c(Cl)c1` [Example 48], the IC50 was in the range of 250 to 1000 nM. As to `Cc1cc(-c2n[nH]c3cc4c(cc23)CN(CCc2cccc(Cl)c2)C(=O)N4)ccn1` [Example 50], the IC50 is at most 250 nM. The figure for `Cc1cc(-c2n[nH]c3cc4c(cc23)CN(CCN2CCOCC2)C(=O)N4)ccn1` [Example 51] is over 1000 nM. The figure for `Cc1cc(-c2n[nH]c3cc4c(cc23)CN(C(C)CC(C)C)C(=O)N4)ccn1` (stereo not drawn) [Example 53] is 250 to 1000 nM. For the compound `Cc1cc(-c2n[nH]c3cc4c(cc23)CN([C@H](C)CO)C(=O)N4)ccn1` [Example 54], the concentration for half-maximal inhibition (IC50) was over 1000 nM. Consider `Cc1cc(-c2n[nH]c3cc4c(cc23)CN(Cc2cccc(C#N)c2)C(=O)N4)ccn1` [Example 55], for which the IC50 is at most 250 nM.

With `Cc1cc(-c2n[nH]c3cc4c(cc23)CN(Cc2nccs2)C(=O)N4)ccn1` [Example 56], the IC50 was in the range of 250 to 1000 nM.

Consider `O=C1Nc2cc3[nH]nc(-c4cccnc4)c3cc2CN1Cc1cccc(Cl)c1` [Example 57], for which the IC50 was at most 250 nM. The same measure for `Cc1ccc(-c2n[nH]c3cc4c(cc23)CN(Cc2cccc(Cl)c2)C(=O)N4)cn1` [Example 58]: at most 250 nM. On to `O=C1Nc2cc3[nH]nc(-c4ccc5nncn5c4)c3cc2CN1Cc1cccc(Cl)c1` [Example 59], for which the IC50 was over 1000 nM.

With `O=C1Nc2cc3[nH]nc(-c4cn[nH]c4)c3cc2CN1Cc1cccc(Cl)c1` [Example 60], the IC50 is over 1000 nM.

In the case of `O=C1Nc2cc3[nH]nc(-c4ccc(=O)[nH]c4)c3cc2CN1Cc1cccc(Cl)c1` [Example 61], the IC50 was over 1000 nM.

Regarding `Cc1cc(-c2n[nH]c3cc4c(cc23)CN([C@@H]2CCCN(CC3CC3)C2)C(=O)N4)ccn1` [Example 62], the half-inhibitory concentration (IC50) was in the range of 250 to 1000 nM. As to `Cc1cc(-c2n[nH]c3cc4c(cc23)CN(CCc2ccc(F)cc2)CC(=O)N4)ccn1` [Example 67], the IC50 was over 1000 nM. Turning to `Cc1cc(-c2n[nH]c3cc4c(cc23)CN(C2CCN(Cc3ccccc3)CC2)C(=O)N4)ccn1` [Example 70], the IC50 lay within 250 to 1000 nM. `COc1ncc(-c2n[nH]c3cc4c(cc23)CN([C@H](C)c2cccc(Cl)c2)C(=O)N4)cn1` [Example 71]: the IC50 was at most 250 nM. `COc1ncc(-c2n[nH]c3cc4c(cc23)CN(Cc2ccc(F)cc2)C(=O)N4)cn1` [Example 72]: the IC50 was at most 250 nM. In the case of `COc1ccc(-c2n[nH]c3cc4c(cc23)CN(Cc2cccc(Cl)c2)C(=O)N4)cn1` [Example 75], the IC50 was at most 250 nM. Consider `COc1ccc(-c2n[nH]c3cc4c(cc23)CN(Cc2ccc(F)cc2)C(=O)N4)cn1` [Example 76], for which the IC50 is at most 250 nM. Consider `O=C1Nc2cc3[nH]nc(N4CCOCC4)c3cc2CN1Cc1cccc(Cl)c1` [Example 78], for which the concentration for half-maximal inhibition (IC50) is at most 250 nM.

For `Cc1cc(-c2n[nH]c3cc4c(cc23)CN(CCN)C(=O)N4)ccn1` [Example 83], the IC50 is over 1000 nM. `COc1ncc(-c2n[nH]c3cc4c(cc23)CN(CCc2cccc(Cl)c2)C(=O)N4)cn1` [Example 86]: the IC50 was at most 250 nM. As to `COc1ncc(-c2n[nH]c3cc4c(cc23)CN(Cc2cc(F)cc(F)c2)C(=O)N4)cn1` [Example 88], the IC50 is at most 250 nM. The figure for `Cc1ncc(-c2n[nH]c3cc4c(cc23)CN(Cc2cccc(Cl)c2)C(=O)N4)cn1` [Example 90] is at most 250 nM; for `COc1ncc(-c2n[nH]c3cc4c(cc23)CN([C@H](C)c2ccc(Cl)cc2)C(=O)N4)cn1` [Example 95] it is 250 to 1000 nM; for `O=C1Nc2cc3[nH]nc(-c4ccnnc4)c3cc2CN1Cc1ccc(F)cc1` [Example 97] it is 250 to 1000 nM. Turning to `COc1ncc(-c2n[nH]c3cc4c(cc23)CN([C@H](C)c2cccc(C#N)c2)C(=O)N4)cn1` [Example 100], the IC50 was 250 to 1000 nM. Take `O=C1Nc2cc3[nH]nc(-c4ccnnc4)c3cc2CN1CCc1ccc(F)cc1` [Example 110]: the IC50 lay in the range of 250 to 1000 nM.

Regarding `C[C@H](c1cccc(Cl)c1)N1Cc2cc3c(-c4ccnnc4)n[nH]c3cc2NC1=O` [Example 111], the IC50 fell in the range of 250 to 1000 nM.

Turning to `O=C1Nc2cc3[nH]nc(-c4ccnnc4)c3cc2CN1Cc1ccc(F)cc1F` [Example 114], the IC50 is 250 to 1000 nM. Take `C[C@H](c1ccc(Cl)cc1)N1Cc2cc3c(-c4ccnnc4)n[nH]c3cc2NC1=O` [Example 115]: the IC50 fell in the range of 250 to 1000 nM. The figure for `O=C1Nc2cc3[nH]nc(-c4ccnnc4)c3cc2CN1[C@H](CO)c1cccc(Cl)c1` [Example 117] is over 1000 nM; for `COc1ncc(-c2n[nH]c3cc4c(cc23)CN([C@H](CO)c2cccc(Cl)c2)C(=O)N4)cn1` [Example 118] it is at most 250 nM. Consider `O=C1Nc2cc3[nH]nc(-c4ccnnc4)c3cc2CN1[C@@H]1CCCN(Cc2ccccc2F)C1` [Example 121], for which the IC50 is at most 250 nM.

For `O=C1Nc2cc3[nH]nc(-c4ccnnc4)c3cc2CN1[C@@H]1CCCN(Cc2c(F)cccc2F)C1` [Example 122], the IC50 was at most 250 nM.

Consider `O=C1Nc2cc3[nH]nc(-c4ccnnc4)c3cc2CN1Cc1cccc(C(F)(F)F)c1` [Example 124], for which the half-inhibitory concentration (IC50) lay in the range of 250 to 1000 nM.

As to `COc1ncc(-c2n[nH]c3cc4c(cc23)CN(Cc2cccc(C#N)c2)C(=O)N4)cn1` [Example 125], the IC50 is 250 to 1000 nM. In the case of `COc1cccc(F)c1CN1CCC[C@@H](N2Cc3cc4c(-c5ccnnc5)n[nH]c4cc3NC2=O)C1` [Example 126], the half-inhibitory concentration (IC50) was at most 250 nM. As to `O=C1Nc2cc3[nH]nc(-c4ccnnc4)c3cc2CN1Cc1cc(F)cc(F)c1` [Example 127], the IC50 is 250 to 1000 nM. Take `N#Cc1cccc(CN2Cc3cc4c(-c5ccnnc5)n[nH]c4cc3NC2=O)c1` [Example 128]: the IC50 is over 1000 nM.
